According to US9586963B2 (GENFIT, priority 2011, dated 2017):
Structures can show the parent of a compound that is named as a salt.

Experiments:
Rev-Erb alpha = molecular target: T1, Rev-Erb alpha (Homo sapiens, UniProt P20393); test: M2H (mammalian two-hybrid) cellular activation assay of Rev-Erb alpha; format: cell-based; conditions: for EC50: M2H assay, HEK293 cells, Gal4-Rev-Erb alpha / VP16-NCoR, luciferase reporter
T1 sequence (P20393 284-614 limits assumed): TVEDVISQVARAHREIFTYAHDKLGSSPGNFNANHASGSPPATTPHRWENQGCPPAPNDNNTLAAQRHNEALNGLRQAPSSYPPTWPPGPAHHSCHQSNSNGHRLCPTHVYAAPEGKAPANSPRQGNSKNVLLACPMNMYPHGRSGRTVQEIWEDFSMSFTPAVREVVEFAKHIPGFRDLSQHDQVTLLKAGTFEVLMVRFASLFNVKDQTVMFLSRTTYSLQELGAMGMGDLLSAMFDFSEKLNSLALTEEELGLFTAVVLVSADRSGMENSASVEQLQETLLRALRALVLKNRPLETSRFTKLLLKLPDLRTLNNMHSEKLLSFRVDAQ
Summary of the method: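 Six-point dose-response, 18 h, 37 °C, serum-free, in HEK293 cells carrying a Gal4-RE luciferase reporter with Gal4-Rev-Erb alpha or beta plus VP16-NCoR (corepressor interaction readout). EC50 and TOP activation (%) derived from luminescence across four experiments.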

| Compound | melting point | EC50 (Rev-Erb alpha) | Emax (Rev-Erb alpha; HEK293, read-out: TOP activation) |
| --- | --- | --- | --- |
| FC(F)(F)c1ccc(-c2nccs2)c(Oc2ccc3nnc(Cl)n3n2)c1 (as salt: potassium) [Cpd.4-105, 3-chloro-6-(2-(thiazol-2-yl)-5-(trifluoromethyl)phenoxy)-[1,2,4]triazolo[4,3-b]pyridazine] | 171 to 173 °C |  |  |
| FC(F)(F)c1ccc(-c2cscn2)c(Oc2ccc3nnc(Cl)n3n2)c1 (as salt: potassium) [Cpd.4-106, 3-chloro-6-(2-(thiazol-4-yl)-5-(trifluoromethyl)phenoxy)-[1,2,4]triazolo[4,3-b]pyridazine] | 191 to 192 °C |  |  |
| NCc1ccc(-c2ccccc2)c(Oc2ccc3nnc(Cl)n3n2)c1 (as salt: sodium) [Cpd.4-65, 3-chloro-6-(4-aminomethyl-biphenyl-2-yloxy)-[1,2,4]triazolo[4,3-b]pyridazine] | 164.6 to 167.7 °C |  |  |
| OCc1ccc(Oc2ccc3nnc(Cl)n3n2)c(-c2ccccc2)c1 (as salt: sodium) [Cpd.4-66, 3-chloro-6-(5-hydroxymethyl-biphenyl-2-yloxy)-[1,2,4]triazolo[4,3-b]pyridazine] | 72 °C |  |  |
| COC(=O)c1ccc(Oc2ccc3nnc(Cl)n3n2)c(-c2ccccc2)c1 (as salt: sodium) [Cpd.4-69, 3-chloro-6-(5-methyloxycarbonyl-biphenyl-2-yloxy)-[1,2,4]triazolo[4,3-b]pyridazine] | 75.9 to 78.8 °C |  |  |
| NC(=O)c1cccc(-c2ccc(C(F)(F)F)cc2Oc2ccc3nnc(Cl)n3n2)c1 (as salt: sodium) [Cpd.4-72, 3-chloro-6-(4-trifluoromethyl-3′-aminocarbonyl-biphenyl-2-yloxy)-[1,2,4]triazolo[4,3-b]pyridazine] | 217.7 to 220 °C |  |  |
| COc1cccc(-c2cc(F)ccc2Oc2ccc3nnc(Cl)n3n2)c1 (as salt: sodium) [Cpd.4-76, 3-chloro-6-(5-fluoro-3′ methoxy-biphenyl-2-yloxy)-[1,2,4]triazolo[4,3-b]pyridazine] | 91.3 to 93.4 °C |  |  |
| COc1ccccc1-c1cccc(Oc2ccc3nnc(Cl)n3n2)c1 [Cpd.3-8, 6-(2′-methoxy-biphenyl-3-yloxy)-3-chloro-[1,2,4]triazolo[4,3-b]pyridazine] | 82.5 °C | 1000 to 6000 nM |  |
| Fc1ccc(-c2cccc(Oc3ccc4nnc(Cl)n4n3)c2)cc1 [Cpd.3-9, 6-(4′-fluoro-biphenyl-3-yloxy)-3-chloro-[1,2,4]triazolo[4,3-b]pyridazine] | 88 °C | 100 to 1000 nM |  |
| Fc1ccccc1-c1cccc(Oc2ccc3nnc(Cl)n3n2)c1 [Cpd.3-10, 6-(2′-fluoro-biphenyl-3-yloxy)-3-chloro-[1,2,4]triazolo[4,3-b]pyridazine] | 128.6 °C | 100 to 1000 nM |  |
| Clc1ccccc1-c1cccc(Oc2ccc3nnc(Cl)n3n2)c1 [Cpd.3-11, 6-(2′-chloro-biphenyl-3-yloxy)-3-chloro-[1,2,4]triazolo[4,3-b]pyridazine] | 82.4 °C | 1000 to 6000 nM |  |
| Clc1ccc(-c2cccc(Oc3ccc4nnc(Cl)n4n3)c2)cc1 [Cpd.3-12, 6-(4′-chloro-biphenyl-3-yloxy)-3-chloro-[1,2,4]triazolo[4,3-b]pyridazine] | 128 °C | 1000 to 6000 nM |  |
| O=C(O)c1ccc(Oc2ccc3nnc(Cl)n3n2)c(-c2ccccc2)c1 [Cpd.4-59, 3-chloro-6-(5-hydroxycarbonyl-biphenyl-2-yloxy)-[1,2,4]triazolo[4,3-b]pyridazine] | 266.9 to 267.7 °C |  |  |
| CNC(Cc1ccccc1)c1ccc(Oc2ccc3nnc(Cl)n3n2)c(-c2ccccc2)c1 (stereo not drawn) [Cpd.4-158, 3-chloro-6-(5-(benzylmethylaminomethyl)biphenyl-2-yloxy)-[1,2,4]triazolo[4,3-b]pyridazine] | 60.8 to 62.5 °C |  |  |
| CC(NCCc1ccccc1)c1ccc(Oc2ccc3nnc(Cl)n3n2)c(-c2ccccc2)c1 (stereo not drawn) [Cpd.4-165, 3-chloro-6-(5-(methylphenethylaminomethyl)biphenyl-2-yloxy)-[1,2,4]triazolo[4,3-b]pyridazine] | 114.3 to 117 °C |  |  |
| CC(NC1CCCCC1)c1ccc(Oc2ccc3nnc(Cl)n3n2)c(-c2ccccc2)c1 (stereo not drawn) [Cpd.4-167, 3-chloro-6-(5-(methyl-cyclohexylaminomethyl)biphenyl-2-yloxy)-[1,2,4]triazolo[4,3-b]pyridazine] | 50.6 °C |  |  |
| FC(F)(F)c1ccc(-c2ccccc2)c(Oc2cc(-c3ccccc3)c3nnc(Cl)n3n2)c1 [Cpd.5-4, 3-chloro-8-phenyl-6-(4-trifluoromethyl-biphenyl-2-yloxy)-[1,2,4]triazolo[4,3-b]pyridazine] | 162 to 164 °C |  |  |
| FC(F)(F)c1ccc(-c2ccccc2)c(Oc2nn3c(Cl)nnc3cc2C2CC2)c1 [Cpd.5-14, 3-chloro-7-cyclopropyl-6-(4-trifluoromethyl-biphenyl-2-yloxy)-[1,2,4]triazolo[4,3-b]pyridazine] | 130 to 133 °C |  |  |
| Cc1cc(Oc2cccc(C(F)(F)F)c2-c2cncnc2)nn2c(Cl)nnc12 [Cpd.5-42, 3-chloro-8-methyl-6-(2-(pyrimidin-5-yl)-3-(trifluoromethyl)phenoxy)-[1,2,4]triazolo[4,3-b]pyridazine] |  | 1000 to 6000 nM |  |
| Cc1ncncc1-c1ccc(C(F)(F)F)cc1Oc1cc(C)c2nnc(Cl)n2n1 [Cpd.5-45, 3-chloro-8-methyl-6-(2-(4-methylpyrimidin-5-yl)-5-(trifluoromethyl)phenoxy)-[1,2,4]triazolo[4,3-b]pyridazine] |  | 1000 to 6000 nM |  |
| Cc1cc2nnc(Cl)n2nc1Oc1cc(C(F)(F)F)ccc1-c1cncnc1C [Cpd.5-47, 3-chloro-7-methyl-6-(2-(4-methylpyrimidin-5-yl)-5-(trifluoromethyl)phenoxy)-[1,2,4]triazolo[4,3-b]pyridazine] |  | 1000 to 6000 nM |  |
| COc1ncc(-c2ccc(C(F)(F)F)cc2Oc2cc(C)c3nnc(Cl)n3n2)c(OC)n1 [Cpd.5-50, 3-chloro-6-(2-(2,4-dimethoxypyrimidin-5-yl)-5-(trifluoromethyl)phenoxy)-8-methyl-[1,2,4]triazolo[4,3-b]pyridazine] |  | 1000 to 6000 nM |  |
| COc1ncc(-c2ccc(C(F)(F)F)cc2Oc2nn3c(Cl)nnc3cc2C)c(OC)n1 [Cpd.5-51, 3-chloro-6-(2-(2,4-dimethoxypyrimidin-5-yl)-5-(trifluoromethyl)phenoxy)-7-methyl-[1,2,4]triazolo[4,3-b]pyridazine] |  | 1000 to 6000 nM |  |
| CCc1ncncc1-c1ccc(C(F)(F)F)cc1Oc1nn2c(Cl)nnc2cc1C [Cpd.5-52, 3-chloro-6-(2-(4-ethylpyrimidin-5-yl)-5-(trifluoromethyl)phenoxy)-7-methyl-[1,2,4]triazolo[4,3-b]pyridazine] |  | 1000 to 6000 nM |  |
| CCc1ncncc1-c1ccc(C(F)(F)F)cc1Oc1cc(C)c2nnc(Cl)n2n1 [Cpd.5-53, 3-chloro-6-(2-(4-ethylpyrimidin-5-yl)-5-(trifluoromethyl)phenoxy)-8-methyl-[1,2,4]triazolo[4,3-b]pyridazine] |  | 1000 to 6000 nM |  |
| Cc1nc(-c2ccc(Oc3nn4c(Cl)nnc4cc3C)c(-c3ccccc3)c2)no1 [Cpd.5-65, 3-chloro-7-methyl-6-(4-(5-methyl-1,2,4-oxadiazol-3-yl)-2-(phenyl)phenoxy)-[1,2,4]triazolo[4,3-b]pyridazine] |  | 1000 to 6000 nM |  |
| Fc1ccc(Oc2ccc3nnc(Cl)n3n2)c(-c2cccc(CN3CCCCC3)c2)c1 [hydrochloride] |  | > 6000 nM | > 130% |
